Data as given in ChEMBL document CHEMBL4346754, “Further exploration of an N-aryl phenoxyethoxy pyridinone-based series of mGlu3 NAMs: Challenging SAR, enantiospecific activity and in vivo efficacy” (Bioorg Med Chem Lett, 2019).
Activity calls are given as the source filed them. The calls are words filed in the database; no cut-off is given here.

Key:
Mus musculus [1] = experiment: Anti-anxiety activity in C57BL/6J mouse assessed as increase in total number of open arm entries at 15 mg/kg, ip treated for 15 mins by elevated zero maze assay; assay type: functional, organism-based
Mus musculus [2] = experiment: Anti-anxiety activity in C57BL/6J mouse assessed as increase in total time spent in open arms at 15 mg/kg, ip treated for 15 mins by elevated zero maze assay; assay type: functional, organism-based
Mus musculus [3] = experiment: Anti-anxiety activity in C57BL/6J mouse assessed as reduction in number of marbles buried at 15 mg/kg, ip treated for 15 mins by marble burying assay; assay type: functional, organism-based
Mus musculus [4] = experiment: Antidepressant activity in ip dosed C57BL6/J mouse as total time of immobile by tail suspension test relative to control; assay type: functional, organism-based
[5] = molecular target: T1, Metabotropic glutamate receptor 3 (Rattus norvegicus, UniProt P31422); experiment: Negative allosteric modulation of rat mGlu3R expressed in HEK cells harboring GIRK assessed as reduction in glutamate-induced thallium flux; assay type: cell-based
[6] = molecular target: Metabotropic glutamate receptor 3 (Rattus norvegicus) (UniProt P31422); experiment: Negative allosteric modulation of rat mGlu3R expressed in HEK293 cells co-expressing Galpha15 assessed as decrease in glutamate-induced calcium mobilization relative to glutamate; assay type: functional, cell-based; parameters: concentration or dose not given beside the values
Mus musculus [7] = experiment: Anti-anxiety activity in C57BL/6J mouse assessed as increase in total time spent in open arms at 10 mg/kg, ip treated for 15 mins by elevated zero maze assay; assay type: functional, organism-based
Mus musculus [8] = experiment: Anti-anxiety activity in C57BL/6J mouse assessed as increase in total number of open arm entries at 10 mg/kg, ip treated for 15 mins by elevated zero maze assay; assay type: functional, organism-based
Mus musculus [9] = experiment: Anti-anxiety activity in C57BL/6J mouse assessed as reduction in number of marbles buried at 10 mg/kg, ip treated for 15 mins by marble burying assay; assay type: functional, organism-based
[10] = Fraction unbound in rat plasma; assay type: ADME, cell-free
[11] = Fraction unbound in rat brain homogenate; assay type: ADME, tissue-based
[12] = Permeability coefficient, Kp in rat brain; assay type: ADME, tissue-based
[13] = Unbound brain to plasma concentration ratio in rat; assay type: ADME, cell-free; details: read-out: K(p,uu,brain)
[14] = Half life in iv dosed rat; assay type: ADME, organism-based; details: in vivo
[15] = MRT in iv dosed rat; assay type: ADME, organism-based; details: in vivo
[16] = Volume of distribution at steady state in iv dosed rat; assay type: ADME, organism-based; details: in vivo, read-out: Vdss
Mus musculus [17] = experiment: Antidepressant activity in ip dosed C57BL6/J mouse as […] in immobility time by tail suspension test; assay type: functional; details: read-out: MED
[18] = Brain to plasma permeability coefficient, Kp in mouse at 10 mg/kg, ip; assay type: ADME, organism-based
[19] = Drug level in mouse plasma at 10 mg/kg, ip; assay type: ADME, organism-based; details: in vivo
[20] = Drug level in mouse brain at 10 mg/kg, ip; assay type: ADME, organism-based; details: in vivo, read-out: Ct
[21] = Plasma clearance in iv dosed rat; assay type: ADME, organism-based
[22] = molecular target: T1, Metabotropic glutamate receptor 3; experiment: Negative allosteric modulation of rat mGlu3R expressed in HEK cells harboring GIRK assessed as reduction in glutamate-induced thallium flux preincubated for 5 mins followed by glutamate addition and measured after 2 mins by BTC-AM-dye based fluorescence assay; assay type: cell-based

Sequence of Metabotropic glutamate receptor 3 (Rattus norvegicus) (P31422 23-879 limits assumed): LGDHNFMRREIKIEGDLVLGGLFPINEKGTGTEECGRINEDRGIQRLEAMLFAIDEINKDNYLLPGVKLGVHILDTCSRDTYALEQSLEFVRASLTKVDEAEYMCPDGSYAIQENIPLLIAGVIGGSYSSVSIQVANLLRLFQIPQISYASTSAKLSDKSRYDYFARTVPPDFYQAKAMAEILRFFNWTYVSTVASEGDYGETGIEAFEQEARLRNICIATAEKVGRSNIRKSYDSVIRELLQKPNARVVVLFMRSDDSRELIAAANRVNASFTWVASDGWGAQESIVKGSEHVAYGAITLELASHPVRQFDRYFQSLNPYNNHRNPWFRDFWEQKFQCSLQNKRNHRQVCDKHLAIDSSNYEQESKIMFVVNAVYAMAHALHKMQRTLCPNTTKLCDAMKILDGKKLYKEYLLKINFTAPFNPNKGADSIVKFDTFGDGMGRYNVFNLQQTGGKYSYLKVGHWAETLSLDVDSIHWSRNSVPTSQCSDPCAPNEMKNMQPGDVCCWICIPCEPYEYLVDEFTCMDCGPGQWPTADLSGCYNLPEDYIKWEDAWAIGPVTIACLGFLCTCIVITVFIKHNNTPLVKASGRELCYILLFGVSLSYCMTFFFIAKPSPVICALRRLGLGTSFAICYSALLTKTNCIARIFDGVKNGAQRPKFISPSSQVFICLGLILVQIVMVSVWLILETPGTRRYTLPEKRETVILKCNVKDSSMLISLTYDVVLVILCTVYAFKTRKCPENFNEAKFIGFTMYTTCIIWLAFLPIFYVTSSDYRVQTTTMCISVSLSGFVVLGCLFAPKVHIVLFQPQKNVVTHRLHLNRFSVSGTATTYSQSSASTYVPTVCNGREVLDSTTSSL
T1 sequence (P31422 whole entry): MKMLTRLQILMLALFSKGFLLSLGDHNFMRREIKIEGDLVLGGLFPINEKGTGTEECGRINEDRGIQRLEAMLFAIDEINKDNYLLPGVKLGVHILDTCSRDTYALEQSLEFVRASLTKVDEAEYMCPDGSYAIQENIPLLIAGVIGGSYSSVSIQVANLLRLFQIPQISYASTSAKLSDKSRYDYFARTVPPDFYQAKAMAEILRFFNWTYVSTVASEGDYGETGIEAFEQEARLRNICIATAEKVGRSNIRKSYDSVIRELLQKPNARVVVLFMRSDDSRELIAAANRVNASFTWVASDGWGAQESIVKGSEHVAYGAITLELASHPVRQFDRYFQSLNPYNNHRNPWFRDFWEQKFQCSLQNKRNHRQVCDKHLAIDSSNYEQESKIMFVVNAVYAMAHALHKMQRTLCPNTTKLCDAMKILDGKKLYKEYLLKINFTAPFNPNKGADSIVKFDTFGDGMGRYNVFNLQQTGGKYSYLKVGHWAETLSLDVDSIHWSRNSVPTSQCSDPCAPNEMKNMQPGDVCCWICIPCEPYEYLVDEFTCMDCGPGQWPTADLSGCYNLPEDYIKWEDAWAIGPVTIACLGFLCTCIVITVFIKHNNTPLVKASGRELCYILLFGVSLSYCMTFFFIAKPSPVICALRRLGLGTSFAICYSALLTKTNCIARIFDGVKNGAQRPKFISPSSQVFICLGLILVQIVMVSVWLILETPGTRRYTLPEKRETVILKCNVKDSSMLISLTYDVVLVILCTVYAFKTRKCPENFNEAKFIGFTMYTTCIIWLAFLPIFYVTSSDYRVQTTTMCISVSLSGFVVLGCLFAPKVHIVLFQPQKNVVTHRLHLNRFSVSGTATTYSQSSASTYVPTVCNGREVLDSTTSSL

| SMILES | IC50 [5] [µM] | Activity [6] [%] | also measured |
| --- | --- | --- | --- |
| CN(C)CCCC1(c2ccc(F)cc2)OCc2cc(C#N)ccc21 (configuration not stated) |  |  | Activity (Mus musculus [1]): Active; Activity (Mus musculus [2]): Active; Activity (Mus musculus [3]): Active; Activity (Mus musculus [4]): inactive |
| C[C@H](COc1ccn(-c2ccc(F)cc2)c(=O)c1)Oc1ccccc1 | > 10 | 1.3 |  |
| C[C@H](COc1ccccc1)Oc1ccn(-c2ccc(Cl)cc2)c(=O)c1 | 2.7 | -7.9 |  |
| Cc1cccc(-n2ccc(O[C@H](C)COc3ccccc3)cc2=O)c1 | 1.5 | -4.3 | Activity (Mus musculus [7]): Active; Activity (Mus musculus [8]): Active; Activity (Mus musculus [9]): Active; fraction unbound [10]: 0.055; fraction unbound [11]: 0.018; Kp [12]: 1.6; Kp uu [13]: 0.53; half-life [14]: 2 h; MRT [15]: 2.05 h; Vd [16]: 3.82 L/kg; minimal effective dose (Mus musculus [17]): 10 mg/kg; Kp [18]: 1.42; concentration [19]: 272 nM; concentration [20]: 386 nM; clearance [21]: 31 mL/min/kg; Activity (Mus musculus [4]): inactive |
| Cc1cccc(-n2ccc(OCC(C)COc3ccccc3)cc2=O)c1 (single isomer, unassigned; form 1) [listing 1 of 2 here] |  | -6.6 |  |
| C[C@H](COc1ccccc1)Oc1ccn(-c2cccc(Cl)c2)c(=O)c1 | 0.52 | -11 | fraction unbound [10]: 0.045; fraction unbound [11]: 0.014; Kp [12]: 1.42; Kp uu [13]: 0.44 |
| Cc1cccc(-n2ccc(OCC(Oc3ccccc3)c3ccccc3)cc2=O)c1 (configuration not stated) | > 10 | 14 |  |
| Cc1cccc(-n2ccc(OCC(C)COc3ccccc3)cc2=O)c1 (single isomer, unassigned; form 1) [listing 2 of 2 here] | 3.1 |  |  |
| CC(COc1ccccc1)COc1ccn(-c2ccc(F)cc2)c(=O)c1 (racemic) | 3.2 | 6.6 |  |
| O=c1cc(OCC(Oc2ccccc2)c2ccccc2)ccn1-c1ccc(F)cc1 (configuration not stated) | > 10 | 4.9 |  |
| COc1ccc(-n2ccc(O[C@H](C)COc3ccccc3)cc2=O)cc1 | > 10 | 19 |  |
| CC(COc1ccccc1)COc1ccn(-c2cccc(Cl)c2)c(=O)c1 (single isomer, unassigned) | 1.4 | -4.4 |  |
| Cc1cccc(-n2ccc(OC[C@H](C)Oc3ccccc3)cc2=O)c1 | 1.3 | -7.4 |  |
| CC(COc1ccccc1)COc1ccn(-c2ccc(Cl)cc2)c(=O)c1 (single isomer, unassigned) | 0.92 | 36 | fraction unbound [10]: 0.01; fraction unbound [11]: 0.008; Kp [12]: 1.6 |
| C[C@@H](COc1ccccc1)Oc1ccn(-c2ccc(F)cc2)c(=O)c1 | > 10 | 32 |  |
| Cc1cccc(-n2ccc(OCC(C)COc3ccccc3)cc2=O)c1 (racemic) [listing 1 of 2 here] | 3.2 |  |  |
| Cc1cccc(-n2ccc(OC[C@@H](C)Oc3ccccc3)cc2=O)c1 | > 10 | 4.7 |  |
| O=c1cc(OCC2CCc3ccccc3O2)ccn1-c1ccc(F)cc1 (racemic) | 7.7 | -1.7 |  |
| C[C@@H](COc1ccn(-c2ccc(F)cc2)c(=O)c1)Oc1ccccc1 |  | -5.7 | IC50 [22]: 1.28 to 1.3 µM; half-life [14]: 0.39 h; MRT [15]: 0.448 h; Vd [16]: 2.05 L/kg; minimal effective dose (Mus musculus [17]): 10 mg/kg; clearance [21]: 76.3 mL/min/kg |
| Cc1cccc(-n2ccc(OCC(C)COc3ccccc3)cc2=O)c1 (single isomer, unassigned; form 2) [listing 1 of 2 here] | 1.3 |  |  |
| Cc1cccc(-n2ccc(OCC3CCc4ccccc4O3)cc2=O)c1 (racemic) | 4.1 | -0.77 |  |
| Cc1cccc(-n2ccc(OCC(C)COc3ccccc3)cc2=O)c1 (racemic) [listing 2 of 2 here] |  | 4.6 |  |
| Cc1cccc(-n2ccc(OCC(C)COc3ccccc3)cc2=O)c1 (single isomer, unassigned; form 2) [listing 2 of 2 here] |  | -7.3 |  |
| C[C@H](COc1ccccc1)Oc1ccn(-c2ccc(F)cc2)c(=O)c1 | 3 | -2.2 |  |
